The values that follow come from patent publication US5670498A, “8-substituted styryl xanthine derivatives” (Kyowa Hakko Kogyo Co., Ltd., priority 1992, dated 1997).

The target of series [1] is T1, adenosine A2 receptor (Rattus norvegicus, UniProt P30543).
T1 construct: Corpus striatum of a rat was suspended in ice-cooled 50 mM Tris; from tissue; host or cells: rat corpus striatum (washed membrane suspension)
Kind of series: Adenosine A2 Receptor Binding Test (3H-CGS 21680, rat corpus striatum).
Protocol: Adenosine Receptor Antagonistic Activity (Adenosine A2 Receptor Binding Test)
Corpus striatum of a rat was suspended in ice-cooled 50 mM Tris hydroxymethyl aminomethane hydrochloride (Tris HCl) buffer (pH 7.7) by using Polytron homogenizer (manufactured by Kinematicas Co.). The suspension was centrifuged (50,000×g, 10 minutes), and the precipitate was suspended again in the same amount of 50 mM Tris HCl buffer. The suspension was centrifuged under the same conditions, and the final precipitate was suspended once again in 50 mM Tris HCl buffer containing 10 mM magnesium chloride and 0.02 unit/mg tissue of adenosine deaminase (manufactured by Sigma Co.) to give a tissue concentration of 5 mg (wet weight)/ml.
To 1 ml of the tissue suspension thus prepared were added 50 μl of a mixture of N-ethylcarboxamidoadenosine labeled with tritium (^3 H-NECA: 26 Ci/mmol, manufactured by Amersham Co.) (final concentration: 3.8 nM) and cyclopentyladenosine (CPA, manufactured by Sigma Co.) (final concentration: 50 nM), and 50 μl of a test compound. The resulting mixture was allowed to stand at 25° C. for 120 minutes and then rapidly filtered by suction through a glass fiber filter (GF/C, manufactured by Whatman Co.). The filter was immediately washed three times with 5 ml each of ice-cooled 50 mM Tris HCl buffer, and transferred to a vial, and a scintillator (EX-H by Wako Pure Chemical Industries, Ltd.) was added thereto. The radioactivity on the filter was determined with a liquid scintillation counter (manufactured by Packard instrument Co.).
The similar procedure as above was repeated to determine the radioactivity bound to the A2 receptors using 50 μl of CGS 21680 labeled with tritium {^3 H-2-[p-(2-carboxyethyl)phenethylamino]-5'-(N-ethylcarboxamide)adenosine: 40 Ci/mmol, manufactured by New England Nuclear Co. [J. Pharmacol. Exp. Ther., 251, 888 (1989)]} (final concentration: 4.0 nM) in place of 50 μl of the mixture of N-ethylcarboxamidoadenosine labeled with tritium (^3 H-NECA: 26 Ci/mmol, manufactured by Amersham Co.) (final concentration: 3.8 nM) and cyclopentyladenosine (CPA, manufactured by Sigma Co.) (final concentration: 50 nM).
The inhibition rate of the test compound against the binding of A2 receptors (^3 H-CGS 21680 binding) was calculated by the following equation: [formula]

The subject of series [2] is Clonidine-Induced Aggressive Behavior. The series can be described thus: Effect on Clonidine-Induced Aggressive Behavior. The class given is in vivo, male ddY mice. The settings on record: 10 mg/kg po, clonidine 20 mg/kg ip. As for the experimental part: Effect on Clonidine-Induced Aggressive Behavior The effect of a test compound on the aggressive behavior induced by intraperitoneal administration of clonidine was investigated [Eur. J. Pharmacol., 29, 374 (1968)]. The experiment was performed by using several groups of male ddY mice (weighing 20 to 25 g, Japan SLC), each group consisting of two mice. The test compound was suspended in injectable distilled water (Otsuka Pharmaceutical Co., Ltd.) containing Tween 80. Clonidine hydrochloride (Sigma Co.) was dissolved in physiological saline solution (Otsuka Pharmaceutical Co., Ltd.). The test compound suspension and the control suspension [injectable distilled water (Otsuka Pharmaceutical Co., Ltd.) containing Tween 80] were orally administered to separate groups of the mice (0.1 ml per 10 g of body weight). Sixty minutes after the oral administration of the test compound, clonidine hydrochloride (20 mg/kg) was intraperitoneally injected. The number of biting attacks during 30 minutes after clonidine treatment was counted. The effect of the compound was evaluated by comparing the average number of biting attacks of the test compound-administered groups with that of control groups (Student's t-test).

For series [3], the system named is Haloperidol-Induced Catalepsy. The series can be described thus: Effect on Haloperidol-Induced Catalepsy. Type of series: in vivo, male ddY mice. The settings on record: 10 mg/kg po. As for the experimental part:
Effect on Haloperidol-Induced Catalepsy Parkinson's disease is a clinical syndrome caused by degeneration of nigrostriatal dopaminergic neurons. […] The experiment was performed by using several groups of 5-weeks-old male ddY mice (weighing 22 to 24 g, Japan SLC), each group consisting of 5 mice. Haloperidol (Janssen Pharmaceutica) suspended in 0.3% CMC was intraperitoneally administered to each mouse at a dose of 1.0 mg/kg. Test compounds were suspended in injectable distilled water (Otsuka Pharmaceutical Co., Ltd.) containing Tween 80 [polyoxyethylene (20) sorbitan monooleate]. L-DOPA (Kyowa Hakko Kogyo Co., Ltd.) and benserazide hydrochloride (Kyowa Hakko Kogyo Co., Ltd.) were suspended in 0.3% CMC. One hour after the haloperidol administration, the test compound suspensions and the control suspension [injectable distilled water (Otsuka Pharmaceutical Co., Ltd.) containing Tween 80] containing no test compound were orally administered to separate groups of the mice (0.1 ml per 10 g of body weight). One hour after the administration of the test compound, the forelimbs of each mouse and subsequently the hindlimbs of the same mouse were placed on a 4.5 cm-high, 1.0 cm-wide bar and catalepsy was estimated. […] The catalepsy score and the standard of judgment are shown below. […] The effect of the compounds was evaluated by the total of the catalepsy scores of five mice in each group (25 points at the full).

The target of series [4] is T1, adenosine A2 receptor. Kind of series: Adenosine A2 Receptor Binding Test (3H-NECA + CPA, rat corpus striatum). The settings on record: 3H-NECA, read-out: A2 Receptor Inhibition Rate. As for the experimental part:
Corpus striatum of a rat was suspended in ice-cooled 50 mM Tris hydroxymethyl aminomethane hydrochloride (Tris HCl) buffer (pH 7.7) by using Polytron homogenizer (manufactured by […] Co.). The suspension was centrifuged (50,000×g, 10 minutes), and the precipitate was suspended again in the same amount of 50 mM Tris HCl buffer. The suspension was centrifuged under the same conditions, and the final precipitate was suspended once again in 50 mM Tris HCl buffer containing 10 mM magnesium chloride and 0.02 unit/mg tissue of adenosine deaminase (manufactured by Sigma Co.) to give a tissue concentration of 5 mg (wet weight)/ml. […] The resulting mixture was allowed to stand at 25° C. for 120 minutes and then rapidly filtered by suction through a glass fiber filter (GF/C, manufactured by Whatman Co.). […] The radioactivity on the filter was determined with a liquid scintillation counter (manufactured by Packard instrument Co.). […] The Ki values shown in the table were calculated by the following equation: [formula]

Series [5] is described as follows: Acute Toxicity Test (minimum lethal dose, po). The class given is in vivo. The conditions noted are these: mice, 7 days after administration. As for the experimental part: Test compounds were orally administered to groups of dd-strain male mice weighing 20±1 g, each group consisting of three mice (po; 300 mg/kg). Seven days after the administration, minimum lethal dose (MLD) of each compound was determined by observing the mortality.
Therefore, these compounds can be safely used in a wide range of doses.

The mark [6] stands for this setting: read-out: A2 Receptor Inhibition Rate.

T1 sequence (P30543 whole entry): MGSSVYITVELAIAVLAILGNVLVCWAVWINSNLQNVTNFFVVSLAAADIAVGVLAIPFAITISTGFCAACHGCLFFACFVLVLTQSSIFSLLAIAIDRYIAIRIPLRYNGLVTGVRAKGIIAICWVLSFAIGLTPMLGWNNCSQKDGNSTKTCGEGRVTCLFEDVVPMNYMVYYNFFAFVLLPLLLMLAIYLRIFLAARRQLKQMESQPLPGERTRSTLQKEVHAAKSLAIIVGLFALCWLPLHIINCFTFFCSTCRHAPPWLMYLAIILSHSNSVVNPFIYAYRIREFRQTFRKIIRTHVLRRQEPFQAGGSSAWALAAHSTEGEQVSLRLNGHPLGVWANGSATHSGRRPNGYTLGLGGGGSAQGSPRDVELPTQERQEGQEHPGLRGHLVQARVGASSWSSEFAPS

As usually defined, the Ki is the equilibrium dissociation constant of an inhibitor or competing ligand from its target. Lower therefore signals a stronger hold on the target. Broadly, the inhibition is the change of the read-out against control, counted positive when it falls. In series [1] ([3H]CGS 21680 (inhibition rates of the same line marked *)), `CCn1c(=O)c2c(nc(/C=C/c3cccc(C(C)=O)c3)n2C)n(CC)c1=O` [Compound 24, (E)-8-(3-Acetylstyryl)-1,3-diethyl-7-methylxanthine] showed a Ki of 13 nM. In addition, in series [1] (setting [6]), the inhibition at 0.1 µM was 85% and the inhibition at 1 µM was found to be 99%. For the same compound, the “Number of the Attacks of Test Compound-Treated Group/Number of the Attacks of Control Group” value in series [2] was found to be 5.3. Moreover, the “Number of the Biting Attacks (mean ± S.E.M.), Test Compound-Treated Group” value in series [2] (30 minutes, control 6.3 ± 2.09, p < 0.05) is 33.1 ± 7.16. Moreover, the “Total Score (catalepsy)” value in series [3] (sum of five mice, 25 points at the full, control 25) is 7. The inhibition in vivo at 10 mg/kg in series [3] (Mus musculus, decrease in total score based on control group, read-out: Remission Rate) was determined as 72%.
`CCCn1c(=O)c2c(nc(/C=C\c3ccc(C(=O)OC)cc3)n2C)n(CCC)c1=O` [Compound 8, (Z)-β-(7-methyl-1,3-dipropylxanthin-8-yl)styrene-4-carboxylic acid methyl ester]: in series [4] (10^-4 M), the inhibition at 100 µM is 101%. Besides, the inhibition at 10 µM in series [4] (10^-5 M) was 92%. The “MLD (minimum lethal dose)” value in series [5] is reported as above 300 mg/kg.
